Measured values published in publication PMC7767506, “Synthesis and Characterization of Store-Operated Calcium Entry Inhibitors Active in the Submicromolar Range” (International Journal of Molecular Sciences, 2020).

Assays:
[1] = system: SOCE in DG75 (human Burkitt lymphoma cell line); experiment: Thapsigargin-induced SOCE in DG75 cells, Indo-1; assay type: cell-based
Experimental: (§1) We also tested P11 on the DG75 (Burkitt B lymphoma), U937 (monocytic lymphoma), and MDA-MB231 (breast carcinoma) cell lines. […] Thus, in several cell lines, full inhibition of the SOCE was already obtained at a concentration of 100 nM (Figure 3B).
(§2) [Ca^2+]cyt was recorded by a fluorimetric ratio technique as previously described. Leukocytes were spun and resuspended at a density of 10^6 cells/mL in Hepes buffered saline (HBS; 135 mM NaCl, 5.9 mM KCl, 1.2 mM MgCl2, 11.6 mM Hepes, 11.5 mM glucose adjusted to pH 7.3 with NaOH). Due to the presence of 0.002% Ca^2+ in the NaCl, this HBS medium contained 0.1 mM of Ca^2+. Then, cells were incubated in the dark with 4 μM Indo-1-AM for one hour at room temperature under slow agitation. […] Ultraviolet light of 360 nm was used for excitation of Indo-1, and emissions at 405 and 480 nm were recorded. […] The maximum Indo-1 fluorescence (Rmax) was obtained by adding 1 µM ionomycin to the cell suspension in the presence of 10 mM extracellular CaCl2. Minimum fluorescence was determined following the depletion of external Ca^2+ with 5 mM EGTA.
(§3) To visualize the SOCE, cells were placed into the quartz cuvette and 0.5 EGTA was added just before the beginning of the recordings. […] In the dose-response experiments, different concentrations of 2-APB and its analogs were added 30 s prior to Ca^2+ readdition.

Jurkat cells = experiment: TUNEL apoptosis assay in Jurkat cells; assay type: cell-based, human
Experimental: (§4) To verify the mechanism of cell death induced by compound P11, we next performed caspase-3 activity assays using the fluorogenic Ac-DEVD-AFC substrate as well as a TUNEL assay.
We measured the apoptosis levels in Jurkat cells by the “in situ cell death detection” kit (Roche Applied Science, Meylan, France). Briefly, 50,000 cells/well were seeded in a 96-well plate and treated with or without 10 µg/mL PHA and 0 to 1 µM P11 for 6, 12, or 24 h. Cells were spun, fixed, and permeabilized according to the manufacturer’s instructions and the terminal transferase dUTP Nick end labelling reaction was performed in the dark during 60 min at 37 °C. For visualization of the results, an epifluorescence microscope (Axioskop, Karl Zeiss, Le Pecq, France) was used at an excitation wavelength of 488 nm, and an emission wavelength of 545 nm. Cells were also loaded with 4’,6’ –diamidino-2-phenylindole (DAPI) to visualize the nuclei. Total cell number (>200) and TUNEL-positive cells were counted in several fields (>5) and the ratio of apoptotic cells was calculated. This experiment was repeated three times.

[2] = system: SOCE in U937 (human monocytic lymphoma cell line); experiment: Thapsigargin-induced SOCE in U937 cells, Indo-1; assay type: cell-based
Experimental: as §1, §2, §3

[3] = system: Orai1-expressing lymphoblastoid cell line; experiment: SOCE in Orai1-expressing lymphoblastoid cell line (LCL Orai1+); assay type: cell-based, human; conditions: 1 µM
Experimental: We next tested P11 efficacy on two lymphoblastoid cell lines (“LCL”) established from an Orai1-deficient with a severe combined immunodeficiency (“LCL Orai1−”) and a healthy (“LCL Orai1+”) patients (Figure 3C [19]). […] However, CaCl2 addition after 10 min of TG treatment was only able to induce a massive [Ca^2+]cyt rise in LCL expressing Orai1 proteins, confirming the SOCE default of the SCID patient.
as §2, with “Ca^2+.” for “Ca^2+. Then, cells were incubated in the dark with 4 μM Indo-1-AM for one hour at room temperature under slow agitation.”
as §3

[4] = system: caspase-3 activity in Jurkat cells; experiment: Fluorometric caspase-3 activity assay (Ac-DEVD-AFC) in Jurkat cells; assay type: cell-based, human
Experimental: as §4
Caspase-3 activity was measured using the fluorogenic substrate Ac-DEVD-AFC (Tebu-bio, Le Perray-en-Yvelines, France) according to the manufacturer’s instructions. Briefly, 48-well plates were seeded with 10^6 Jurkat T cells per well. Cells were then incubated for 24 h with 0, 1, or 10 µg/mL PHA and 0 to 1 µM P11 in complete culture medium. After 24 h, cells were collected and lysed in RIPA lysis buffer supplemented with protease inhibitor cocktails (Life Science Biorad, Marnes la Coquette, France). The protein samples were quantified using the DC protein assay reagent (Biorad, Les Ulis, France). Cell lysates (50 µg) were diluted with reaction buffer (200 mM Hepes pH 7.4, 1 mM EDTA, 20% sucrose and 20 mM dithiothreitol) and incubated with the fluorogenic substrate (20 µM final concentration) for 45 min up to 7 h at 37 °C. The release of 7-amino-4-trifluoromethylcoumarin (AFC) was measured by fluorescence (excitation at 405 nm, emission at 505 nm) using a Victor3 plate reader (Perkin Elmer, Courtaboeuf, France).

[5] = system: SOCE in MDA-MB231 (breast cancer) cells; experiment: Thapsigargin-induced SOCE in MDA-MB231 cells, Indo-1; assay type: cell-based, human
Experimental: as §1, §2, §3

With “2-(dibiphenyl-4-ylboryloxy)ethanamine [P11]” the Ki ([1]; DG75 cells) was 32 ± 2 nM, the “concentration of full SOCE inhibition” value ([1]; in several cell lines (Figure 3B)) was 100 nM and the “apoptotic cells (TUNEL)” value (Jurkat cells; 1 µM P11 alone, 24 h) was ~ 5%. For the same substance, the “cells with fragmented DNA (TUNEL)” value (Jurkat cells; 10 µg/mL PHA + 1 µM P11, 24 h) was 17.9 ± 1.2%, the “fold increase of cells with fragmented DNA” value (Jurkat cells; PHA + P11 at concentrations > 10 nM, vs resting conditions) was “≈ 4.5 fold” and the “fold increase of apoptotic cells” value (Jurkat cells; costimulation PHA + P11 > 10 nM, vs PHA alone (Figure 7 legend)) was “≈ 1.5 fold”. The Ki [2] was 40 ± 5 nM, the “effect on [Ca2+]cyt after SOCE activation” value [3] was “immediate decrease of [Ca^2+]cyt” and the caspase-3 activity ([4]; 10 µg/mL PHA + 1 µM P11, 24 h) was 3332 ± 113 AU. The “caspase-3 activity, compound alone” value ([4]; P11 alone, up to 1 µM) was “did not induce any increase”, the “concentration giving maximal activating effect on caspase-3 activity” value ([4]; with 10 µg/mL PHA, 24 h) was 10 nM and the Ki [5] was 50 ± 5 nM.
